Laboratory results reported in ChEMBL document CHEMBL5512613, “Design and synthesis of novel 3-amino-5-phenylpyrazole derivatives as tubulin polymerization inhibitors targeting the colchicine-binding site” (Eur J Med Chem, 2024).
pIC50: −log10 of the molar value. Calls of active or inactive are those of the source. No cut-off for these calls is given here.

Assays:
MCF7 [1] = assay: Antiproliferative activity against human MCF7 cells assessed as inhibition of cell growth incubated for 48 hrs by MTT assay; format: functional, cell-based; conditions: MCF7, 48 h
[2] = Cytotoxicity against human L02 cells assessed as inhibition of cell growth incubated for 48 hrs by MTT assay; format: toxicity, cell-based
A549 = assay: Antiproliferative activity against human A549 cells assessed as inhibition of cell growth incubated for 48 hrs by MTT assay; format: functional, cell-based; conditions: A549, 48 h
HeLa = assay: Antiproliferative activity against human HeLa cells assessed as inhibition of cell growth incubated for 48 hrs by MTT assay; format: functional, cell-based
MDA-MB-231 = assay: Antiproliferative activity against human MDA-MB-231 cells assessed as inhibition of cell growth incubated for 48 hrs by MTT assay; format: functional, cell-based; conditions: MDA-MB-231, 48 h
HT-29 = assay: Antiproliferative activity against human HT-29 cells assessed as inhibition of cell growth incubated for 48 hrs by MTT assay; format: functional, cell-based; conditions: HT-29, 48 h
MCF7 [3] = assay: Antitumor activity against human MCF7 cells xenografted in BALB/c mouse assessed as inhibition of tumor growth by measuring decrease in tumor weight at 10 mg/kg, ip administered every 3 days for 21 days; format: functional; conditions: MCF7, 504 h, time 21 day, read-out: TGI
MCF7 [4] = assay: Inhibition of colony formation in human MCF7 cells at 10 nM incubated for 2 weeks in 5% CO2 at 37 degC by crystal violet staining based analysis; format: functional, cell-based
Tubulin (Homo sapiens) = Tubulin (Homo sapiens) (UniProt P68371+Q9H4B7+P0DPH7+P68366+Q13509+Q71U36+P04350+Q3ZCM7+P07437+P68363+Q9BQE3+Q6PEY2+Q13885+Q9BVA1+Q9BUF5); assay: Stabilization of tubulin in human MCF7 cells assessed as stable and fascicled microtubules at 25 nM incubated for 8 hrs by DAPI staining based immunofluorescence assay; format: cell-based

pIC50 (MCF7 [1])	pIC50 (A549)	pIC50 (HeLa)	pIC50 (MDA-MB-231)	pIC50 (HT-29)	Activity (Tubulin (Homo sapiens))	SMILES	IC50 at 48 h [2] [µM]	inhibition in vivo at 10 mg/kg (MCF7 [3]) [%]	inhibition (MCF7 [4])
5.92	5.56	5.31	5.67	5.45	–	COc1ccc(-c2cc(N)nn2C(=O)c2ccc3c(c2)OCO3)cc1OC	2.09	–	–
5.68	5.61	6.21	5.52	5.34	–	COc1cc(C(=O)n2nc(N)cc2-c2ccc(Br)cc2)cc(OC)c1OC	2.68	–	–
6.82	5.60	6.89	6.41	7.22	–	COc1cc(C(=O)n2nc(N)cc2-c2ccc(F)cc2)cc(OC)c1OC	6.24	–	–
6.66	–	7.70	6.72	7.15	Active	CC(=O)O[C@H]1C(=O)[C@@]2(C)[C@H]([C@H](OC(=O)c3ccccc3)[C@]3(O)C[C@H](OC(=O)[C@H](O)[C@@H](NC(=O)c4ccccc4)c4ccccc4)C(C)=C1C3(C)C)[C@]1(OC(C)=O)CO[C@@H]1C[C@@H]2O [PACLITAXEL]	1.73	73.5	Active
6.12	5.77	5.55	5.41	< 5.30	–	Nc1cc(-c2ccc(Cl)cc2)n(C(=O)c2ccc3c(c2)OCO3)n1	> 10	–	–
5.87	5.60	5.31	5.51	5.73	–	COc1ccc(C(=O)n2nc(N)cc2-c2ccc(C)cc2)cc1OC	5.58	–	–
5.56	5.87	5.59	5.53	5.36	–	COc1cc(C(=O)n2nc(N)cc2-c2ccc(Cl)cc2)cc(OC)c1OC	2.73	–	–
6.92	5.67	7.40	6.77	5.72	–	Cc1ccc(-c2cc(N)nn2C(=O)c2ccc3c(c2)OCO3)cc1	3.9	–	–
6.96	5.29	6.85	–	6.07	–	COc1cc(C(=O)n2nc(N)cc2-c2cccc(Cl)c2)cc(OC)c1OC	1.64	–	–
5.81	5.75	5.54	< 5.30	5.41	–	COc1ccc(C(=O)n2nc(N)cc2-c2ccc(Cl)cc2)cc1OC	4.66	–	–
7.10	6.11	6.70	5.90	5.97	–	COc1cc(C(=O)n2nc(N)cc2-c2cccc(C)c2)cc(OC)c1OC	2.81	–	–
< 5.30	< 5.30	< 5.30	< 5.30	< 5.30	–	COc1cccc(-c2cc(N)nn2C(=O)c2ccc3c(c2)OCO3)c1	> 10	–	–
< 5.30	< 5.30	< 5.30	< 5.30	< 5.30	–	COc1ccc(C(=O)n2nc(N)cc2-c2cccc(Cl)c2)cc1OC	> 10	–	–
5.92	5.53	< 5.30	5.51	< 5.30	–	COc1cccc(-c2cc(N)nn2C(=O)c2ccc(OC)c(OC)c2)c1	2.61	–	–
6.92	5.54	6.49	6.48	6.72	–	COc1cc(C(=O)n2nc(N)cc2-c2cccc(F)c2)cc(OC)c1OC	4.17	–	–
6.74	5.57	5.81	5.89	5.97	–	COc1ccc(C(=O)n2nc(N)cc2-c2ccc(Br)cc2)cc1OC	1.12	–	–
5.35	5.42	< 5.30	5.71	< 5.30	–	Nc1cc(-c2ccc(F)cc2)n(C(=O)c2ccc3c(c2)OCO3)n1	6.06	–	–
6.40	6.05	5.69	5.89	6.80	–	COc1cccc(-c2cc(N)nn2C(=O)c2cc(OC)c(OC)c(OC)c2)c1	5.68	–	–
< 5.30	< 5.30	< 5.30	< 5.30	< 5.30	–	COc1ccc(C(=O)n2nc(N)cc2-c2ccc(OC)c(OC)c2)cc1OC	> 10	–	–
< 5.30	< 5.30	< 5.30	< 5.30	< 5.30	–	COc1ccc(C(=O)n2nc(N)cc2-c2ccc(F)cc2)cc1OC	> 10	–	–
6.51	6.46	6.19	6.08	6.40	–	COc1ccc(-c2cc(N)nn2C(=O)c2cc(OC)c(OC)c(OC)c2)cc1	> 10	–	–
6.77	6.11	6.25	5.80	5.75	–	COc1ccc(-c2cc(N)nn2C(=O)c2cc(OC)c(OC)c(OC)c2)cc1OC	4.1	–	–
6.72	5.66	6.36	6.27	6.55	–	COc1cc(C(=O)n2nc(N)cc2-c2cccc(Br)c2)cc(OC)c1OC	> 10	–	–

SMILES	pIC50 (MCF7 [1])	pIC50 (A549)	pIC50 (HeLa)	pIC50 (MDA-MB-231)	pIC50 (HT-29)	Activity (Tubulin (Homo sapiens))	IC50 at 48 h [2] [µM]	inhibition in vivo at 10 mg/kg (MCF7 [3]) [%]	inhibition (MCF7 [4])
COc1ccc(/C=C\c2cc(OC)c(OC)c(OC)c2)cc1O [COMBRETASTATIN A4]	–	6.55	7.05	6.96	6.42	–	3.2	–	Active
